Measured values from US20090048160A1, “Antimicrobial activity of bovine bactericidal/permeability-increasing protein (BPI)-derived peptides against Gram-negative bacterial mastitis isolates” (priority 2007, published 2009).
Ends that are not written are not given here.

How the values were obtained:
[1] = system: E. coli strain P4; experiment: bactericidal activity in whey; format: cell-based; details: for concentrations at which bactericidal activity was displayed: in the presence of whey; for Mean log10 colony forming units: whey, 6 hours at 37° C.
Experimental: Milk and blood samples were aseptically collected from 8 clinically healthy primiparous Holstein cows in mid-lactation with milk somatic cell counts of <150,000 cells/ml. All cows were determined to be free of intramammary pathogens by the absence of growth on blood agar plates spread with milk samples aseptically collected from each animal on 3 different days. For the preparation of whey, milk samples were centrifuged at 44,000×g at 4° C. for 30 min, and the fat layer removed with a spatula. The skim milk was transferred into another sterile tube, centrifuged for an additional 30 min, and the translucent supernatant collected. Milk and whey samples were pasteurized by heating at 63° C. for 30 min. For the preparation of serum, blood was collected from the coccygeal vein into vacutainer tubes containing gel and clot activator (BD Biosciences) for serum separation. The tubes were inverted ×5, the blood allowed to clot for 30 min, and the tubes centrifuged at 1500×g for 15 min. The clear serum supernatants were aseptically transferred into sterile tubes and heat-inactivated by incubating at 56° C. for 30 min. An aliquot of each sample was plated on blood agar plates and samples that were free of detectable bacterial growth were stored at −20° C.
Overnight bacterial cultures of E. coli strain P4 grown in trypticase soy broth were diluted 1:1,000 in brain heart infusion broth and incubated at 37° C. for 2 hours while shaking at 225 rpm. The log-phase bacteria were diluted 1:10 in brain heart infusion broth to obtain a final concentration of […]. 0.01 ml of the bacterial inoculum was added to a 1.5 ml sterile microcentrifuge tube containing 0.04 ml of serum, milk, or whey. A 0.05 ml aliquot of either peptide or CBS alone was added to each tube. The samples were then shaken at 100 rpm for 6 hours at 37° C. The sample mixtures were subsequently serially diluted in sterile phosphate-buffered saline and plated on MacConkey agar plates (BD Biosciences). The plates were incubated overnight at 37° C. and the colonies enumerated.
However, bBPI90-99,148-161 was able to inhibit >99% of the growth of E. coli in milk. Because milk appeared to have an inhibitory effect on the bactericidal activity of bBPI90-99,148-161, the peptides were subsequently evaluated for their ability to retain activity in whey, which is the casein-depleted, protein-rich liquid fraction of milk (Table 4).

[2] = system: bacterial LPS derived from E. coli 0111:B4; experiment: LPS neutralization, Limulus amebocyte lysate (LAL) assay; format: biochemical; details: 1 ng LPS; for inhibition of LPS activity: 30 min
Experimental: FIG. 1 depicts the mean (±S.E.) percent neutralization of bacterial LPS bioactivity as determined with the Limulus amebocyte lysate assay. Increasing concentrations of peptides or polymixin B were incubated with 1 ng of E. coli-derived LPS for 30 min. Following incubation, the amount of free LPS was determined by extrapolation from a standard curve and the percent of bound (neutralized) LPS was calculated.
The ability of the peptides to neutralize LPS was determined using a commercially available Limulus amebocyte lysate (LAL) assay (Cambrex BioScience Walkersville, Inc., Walkersville, Md.). As a positive control, polymyxin B (Sigma Chemical Co.) was evaluated in parallel with the peptides. Increasing concentrations of peptides or polymyxin B were incubated with 1 ng of highly purified bacterial LPS (Sigma Chemical Co.), derived from E. coli 0111:B4, in a 500 μl reaction volume of endotoxin-free water for 30 min at 37° C. while shaking at 100 rpm. Following the incubation, the amount of free LPS was determined in each sample according to the manufacturer's instructions. Briefly, 50 μl of the above mixture was placed into a 96-well microtiter plate and the reaction initiated by the addition of an equal volume of amoebocyte lysate. Following an incubation at 37° C. for 10 min, 100 μl of chromogenic substrate was added and the plate incubated for 5-10 min at 37° C. The reaction was stopped by the addition of 50 μl of glacial acetic acid and the absorbance measured at a wavelength of 405 nm on a microplate reader (Biotec Instruments, Inc., Winooski, Vt.). The amount of non-bound LPS was extrapolated from a standard curve and the percent inhibition calculated according to the following formula: […]
To determine whether the bBPI peptides were able to neutralize LPS, increasing concentrations of the peptides were incubated with LPS (1 ng) and the resulting mixture assayed with the LAL assay (FIG. 1). As a positive and negative control, respectively, polymyxin B and a non-BPI-derived peptide were also assayed. […] In contrast, bBPI142-169 and bBPI90-99,148-161 were able to neutralize ≧93% of LPS activity at peptide concentrations of 30 and 100 μg/ml, respectively.

Sequence: KWKARKNFIKGSSLGWLIQLFRKR [bBPI90-99,148-161]
- concentrations at which bactericidal activity was displayed [1]: ≥ 10 µg/mL
- Mean log10 colony forming units ([1]; peptide 0.1 μg/ml): 8.17 log10 colony forming units
- Mean log10 colony forming units ([1]; peptide 1 μg/ml): 7.97 log10 colony forming units
- Mean log10 colony forming units ([1]; peptide 10 μg/ml): 0 log10 colony forming units
- Mean log10 colony forming units ([1]; peptide 100 μg/ml): 0 log10 colony forming units
- inhibition of LPS activity ([2]; 1 μg/ml): no inhibition
- inhibition of LPS activity ([2]; 30 μg/ml): 74%

Sequence: NSQIRPLPDKGLDLSIRDASIKIRGKWKARKNFIK [bBPI65-99]
- concentrations at which bactericidal activity was displayed [1]: neither bBPI65-99 nor bBPI142-169 demonstrated bactericidal activity at any concentration tested
- Mean log10 colony forming units ([1]; peptide 0.1 μg/ml): 8.47 log10 colony forming units
- Mean log10 colony forming units ([1]; peptide 1 μg/ml): 8.26 log10 colony forming units
- Mean log10 colony forming units ([1]; peptide 10 μg/ml): 8.16 log10 colony forming units
- Mean log10 colony forming units ([1]; peptide 100 μg/ml): 7.36 log10 colony forming units
- inhibition of LPS activity ([2]; 1 μg/ml): approximately 20%
- maximal inhibition of LPS activity ([2]; within the dose-response range tested): 50%

Sequence: VRIHISGSSLGWLIQLFRKRIESLLQKS [bBPI142-169]
- concentrations at which bactericidal activity was displayed [1]: neither bBPI65-99 nor bBPI142-169 demonstrated bactericidal activity at any concentration tested
- Mean log10 colony forming units ([1]; peptide 0.1 μg/ml): 8.29 log10 colony forming units
- Mean log10 colony forming units ([1]; peptide 1 μg/ml): 8.44 log10 colony forming units
- Mean log10 colony forming units ([1]; peptide 10 μg/ml): 8.10 log10 colony forming units
- Mean log10 colony forming units ([1]; peptide 100 μg/ml): 7.45 log10 colony forming units
- inhibition of LPS activity ([2]; 1 μg/ml): approximately 20%
